Data: patent US20250302862A1, “SMALL RNA DRUG FOR INHIBITING ACTIVITY OF CANCER CELLS” (Institute of Basic Medical Sciences Chinese Academy of …, priority 2022, published 2025)

System: cyclooxygenase-2 (COX2)
Experiment: Dual luciferase reporter assay in 293T cells
Type: cell-based
Protocol: The targeting effect of HQi-sRNA-2 obtained from medicinal plants by the inventors on cyclooxygenase-2 (COX2) was studied by a dual luciferase reporter detection system, so as to study its potential to exert lipid-lowering effects.
293T cells were cultured and transfected with the HQi-sRNA-2 to be screened and NC-sRNA, respectively, and then with the dual luciferase reporter plasmid of COX2. The dual luciferase activity was detected after 48 h.

With “HQi-sRNA-2: small RNA derived from Scutellaria baicalensis, sequence AUGGUUCGAUUCCGGAGAGGG (listed as RNA, chemistry not given here)” the luciferase activity (COX2 dual luciferase reporter plasmid, 48 h, compared with NC-sRNA) was “significantly reduce” and the luciferase activity (base sequence of the binding site mutated) was “restored”.
